Laboratory results reported in PubChem BioAssay (NCI).
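Grown in 96-well plates, cells were treated for 48 hours with each compound at five concentrations. Insufficient inhibition: endpoint recorded as highest concentration tested. At the TGI there is no net growth.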

Experiments:
Test in all cases: NCI anticancer screen, dose series, 48 h
[1] = system: HL-60(TB) leukemia
[2] = system: IGROV1 ovarian
[3] = system: KM12 colon
[4] = system: LOX IMVI melanoma
[5] = system: SNB-75 CNS
[6] = system: ACHN renal
[7] = system: SF-268 CNS
[8] = system: UACC-257 melanoma
[9] = system: SK-MEL-28 melanoma
[10] = system: NCI-H460 lung
[11] = system: COLO 205 colon
[12] = system: SK-MEL-2 melanoma
[13] = system: RXF 393 renal
[14] = system: 786-0 renal
[15] = system: MDA-MB-435
[16] = system: MOLT-4 leukemia
[17] = system: HCC-2998 colon
[18] = system: NCI-H226 lung
[19] = system: HT29 colon
[20] = system: SK-MEL-5 melanoma
[21] = system: HCT-116 colon
[22] = system: MCF7 breast
[23] = system: A498 renal
[24] = system: SR leukemia
[25] = system: NCI-H522 lung
[26] = system: OVCAR-5 ovarian
[27] = system: OVCAR-3 ovarian
[28] = system: SN12C renal
[29] = system: OVCAR-8 ovarian
[30] = system: U251 CNS
[31] = system: OVCAR-4 ovarian
[32] = system: MDA-MB-231 breast
[33] = system: T-47D breast
[34] = system: HOP-92 NSCLC
[35] = system: SW-620 colon
[36] = system: UACC-62 melanoma
[37] = system: HOP-62 NSCLC
[38] = system: CAKI-1 renal
[39] = system: RPMI-8226 leukemia
[40] = system: SF-539 CNS
[41] = system: UO-31 renal
[42] = system: PC-3 prostate
[43] = system: TK-10 renal
[44] = system: BT-549 breast
[45] = system: EKVX NSCLC
[46] = system: NCI-H23 lung
[47] = system: MDA-N
[48] = system: SNB-19 CNS
[49] = system: CCRF-CEM leukemia
[50] = system: A549 NSCLC
[51] = system: K-562 leukemia
[52] = system: SF-295 CNS
[53] = system: DU-145 prostate
[54] = system: HCT-15 colon
[55] = system: NCI/ADR-RES ovarian
[56] = system: M14 melanoma
[57] = system: MALME-3M melanoma
[58] = system: SK-OV-3 ovarian
[59] = system: HS 578T breast

O=[N+]([O-])c1cc2oc(COc3ccccc3)nc2cc1Cl
TGI [1]: > 100 µM | TGI [2]: > 100 µM | TGI [3]: 51.3 µM | TGI [4]: 35 µM | TGI [5]: 58 µM | TGI [6]: > 100 µM | TGI [7]: > 100 µM | TGI [8]: 63.4 µM | TGI [9]: > 100 µM | TGI [10]: 53.6 µM | TGI [11]: 36.6 µM | TGI [12]: 44.2 µM | TGI [13]: 69.5 µM | TGI [14]: > 100 µM | TGI [15]: 52.4 µM | TGI [16]: > 100 µM | TGI [17]: 43.3 µM | TGI [18]: 51.3 µM | TGI [19]: > 100 µM | TGI [20]: 25.5 µM | TGI [21]: 44.9 µM | TGI [22]: > 100 µM | TGI [23]: 53 µM | TGI [24]: > 100 µM | TGI [25]: 46.3 µM | TGI [26]: > 100 µM | TGI [27]: 48.2 µM | TGI [28]: 65.1 µM | TGI [29]: > 100 µM | TGI [30]: 52.5 µM | TGI [31]: > 100 µM | TGI [32]: 69.4 µM | TGI [33]: 81.4 µM | TGI [34]: > 100 µM | TGI [35]: > 100 µM | TGI [36]: 41.4 µM | TGI [37]: 50.6 µM | TGI [38]: 67.6 µM | TGI [39]: > 100 µM | TGI [40]: 45.8 µM | TGI [41]: 66 µM | TGI [42]: > 100 µM | TGI [43]: > 100 µM | TGI [44]: 60 µM | TGI [45]: 73.6 µM | TGI [46]: 40.8 µM | TGI [47]: 69.6 µM | TGI [48]: > 100 µM | TGI [49]: > 100 µM | TGI [50]: > 100 µM | TGI [51]: > 100 µM | TGI [52]: 38.8 µM | TGI [53]: > 100 µM | TGI [54]: 43.3 µM | TGI [55]: 61.2 µM | TGI [56]: 43.5 µM | TGI [57]: 94.5 µM | TGI [58]: 59.9 µM | TGI [59]: > 100 µM

Clc1c(Cl)c(Cl)c2nn(C3CCCO3)nc2c1Cl (stereo not given)
TGI [2]: > 100 µM | TGI [7]: > 100 µM | TGI [8]: > 100 µM | TGI [11]: > 100 µM | TGI [12]: > 100 µM | TGI [13]: > 100 µM | TGI [14]: > 100 µM | TGI [15]: > 100 µM | TGI [16]: > 100 µM | TGI [17]: > 100 µM | TGI [18]: > 100 µM | TGI [19]: > 100 µM | TGI [20]: > 100 µM | TGI [21]: > 100 µM | TGI [22]: > 100 µM | TGI [23]: > 100 µM | TGI [24]: > 100 µM | TGI [25]: > 100 µM | TGI [26]: > 100 µM | TGI [27]: > 100 µM | TGI [28]: > 100 µM | TGI [29]: > 100 µM | TGI [30]: > 100 µM | TGI [32]: > 100 µM | TGI [33]: > 100 µM | TGI [36]: > 100 µM | TGI [37]: > 100 µM | TGI [38]: > 100 µM | TGI [40]: > 100 µM | TGI [42]: > 100 µM | TGI [43]: > 100 µM | TGI [44]: 80.5 µM | TGI [45]: > 100 µM | TGI [46]: > 100 µM | TGI [47]: > 100 µM | TGI [48]: > 100 µM | TGI [49]: > 100 µM | TGI [50]: > 100 µM | TGI [51]: 98.3 µM | TGI [52]: > 100 µM | TGI [53]: > 100 µM | TGI [55]: > 100 µM | TGI [56]: > 100 µM | TGI [57]: > 100 µM | TGI [58]: > 100 µM | TGI [59]: 49.5 µM
